For orientation: IC50 means the concentration at which inhibition is half-maximal. Read a high IC50 as a need for much substance.

Poly(ADP-ribose) glycohydrolase, sequence (Q86W56 whole entry): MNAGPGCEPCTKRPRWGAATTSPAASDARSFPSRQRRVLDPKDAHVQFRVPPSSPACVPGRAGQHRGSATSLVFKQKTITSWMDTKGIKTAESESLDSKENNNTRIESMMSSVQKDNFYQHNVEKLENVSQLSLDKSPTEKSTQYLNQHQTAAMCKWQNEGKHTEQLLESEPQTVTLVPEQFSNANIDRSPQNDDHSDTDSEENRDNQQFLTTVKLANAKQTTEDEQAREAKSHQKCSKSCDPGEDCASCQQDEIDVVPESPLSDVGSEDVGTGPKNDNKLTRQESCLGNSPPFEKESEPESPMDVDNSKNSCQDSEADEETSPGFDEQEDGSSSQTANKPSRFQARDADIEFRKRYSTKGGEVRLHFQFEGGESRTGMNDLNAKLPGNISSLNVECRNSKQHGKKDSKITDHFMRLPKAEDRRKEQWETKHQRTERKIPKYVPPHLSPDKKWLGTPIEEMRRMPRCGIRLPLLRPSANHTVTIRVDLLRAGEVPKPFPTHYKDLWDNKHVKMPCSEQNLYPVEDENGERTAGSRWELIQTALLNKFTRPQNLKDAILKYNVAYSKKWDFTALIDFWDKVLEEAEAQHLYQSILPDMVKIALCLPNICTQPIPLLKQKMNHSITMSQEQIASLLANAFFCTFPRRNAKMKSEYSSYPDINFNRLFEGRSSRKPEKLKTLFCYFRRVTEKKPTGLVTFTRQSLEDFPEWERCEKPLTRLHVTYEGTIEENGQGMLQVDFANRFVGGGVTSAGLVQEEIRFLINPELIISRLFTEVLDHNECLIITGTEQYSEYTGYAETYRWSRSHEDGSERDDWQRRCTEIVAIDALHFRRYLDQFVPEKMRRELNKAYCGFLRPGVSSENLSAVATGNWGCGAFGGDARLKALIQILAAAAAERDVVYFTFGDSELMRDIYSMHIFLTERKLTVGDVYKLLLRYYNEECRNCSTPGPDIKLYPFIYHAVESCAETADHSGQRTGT

For the assay, the target named is Poly(ADP-ribose) glycohydrolase (Homo sapiens, UniProt Q86W56). The assay can be described thus: PARG Biochemical Assay. Conditions: pH 7.4. As to the method:
Briefly, PARG in vitro assays were conducted in a total volume of 15 μL in a standard 384-well format. A total of 5 μL of human full length PARG (AstraZeneca), used at a final reaction concentration of 65 pM, was added to 5 μL of Bt-NAD ribosylated PARP1 substrate (AstraZeneca) at a final reaction concentration of 4.8 nM in assay buffer (50 mM Tris pH 7.4, 0.1 mg mL−1 BSA, 3 mM EDTA, 0.4 mM EGTA, 1 mM DTT, 0.01% Tween 20, 50 mM KCl). The reaction was incubated at RT for 10 min, and then 5 μL of detection reagent was added. Detection reagent consists of 42 nM mAb anti-6HIS XL665 (CisBio: 61HISXLB) and2.25 nM streptavidin europium cryptate (CisBio: 610SAKLB), both at 3× working stock concentrations (final concentrations of 14 nM and 0.75 nM, respectively), in detection buffer (50 mM Tris pH 7.4, 0.1 mg mL−1 BSA and 100 mM KF). Following incubation at RT for 60 min in the dark, TR-FRET signal was measured at λEx 340 nm and λEm 665 nm and λEm
Turning to `CC(C)(C)NS(=O)(=O)c1ccc2c(c1)C(=O)c1ccccc1C2=O` [PDD00013907 (1)], the concentration for half-maximal inhibition (IC50) is above 60000 nM. `Cc1nc(C)c(Cn2c(=O)n(-c3ncns3)c3cc(S(=O)(=O)NC4(C)CC4)ccc32)s1` [PDD00017238 (5)]: inhibition was half-maximal at 40 nM (IC50). Turning to `Cc1cc(Cn2c(=O)n(Cc3cnc(C)s3)c(=O)c3cc(S(=O)(=O)NC4(C)CC4)ccc32)n(C)n1` [PDD00017273 (4)], the IC50 came out at 26 nM.

In the case of `Cc1cc(Cn2c(=O)n(Cc3cnc(C)s3)c(=O)c3cc(S(=O)(=O)N(C)C4(C)CC4)ccc32)n(C)n1` [PDD00031704 (6)], the IC50 was above 60000 nM. To `Cc1nc(C)c(Cn2c(=O)n(-c3ncns3)c3cc(S(=O)(=O)N(C)C4(C)CC4)ccc32)s1` [PDD00031705 (7)] belongs above 60000 nM.

The values are drawn from BindingDB's records for doi:10.1021/acschembio.6b00609 (University of Manchester, 2016).
